This test deals with T1, WIZ (Homo sapiens, UniProt O95785+Q96SW2).
T1 construct: expressed in transfected cells
Description: Quantification of WIZ protein levels in HiBit tag fusion protein assay (293T cells). In kind it is cell-based. Also on record: Dmax: dose or concentration left out as unconfirmed. As to conditions: for remaining activity at 25 µM / Dmax at 25 µM / Dmax: HEK-293T; for remaining activity at 25 µM: read-out: WIZ Amax; for Dmax at 25 µM: 100 − Amax; for Dmax at 25 µM / Dmax: read-out: % degradation of WIZ (100 − Amax); for DC50: WIZ HiBit assay in 293T cells, about 18 hours, 10-point 5-fold dilution, top 25 μM, read-out: WIZ AC50. In a few lines:
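293T cells stably carrying a single-copy HiBit-WIZ fusion were exposed to compounds for about 18 hours at 37° C., top concentration 25 μM, 10-point 5-fold series. Lysates were complemented with LgBit and luminescence was read. Amax is the DMSO-normalized, curve-fitted percentage of WIZ-HiBit remaining at 25 uM.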
A general note: The HiBiT peptide binds its large partner to form an active luciferase.

Setting [1] is: DMSO-normalized, curve-fitted percentage of WIZ-HiBit remaining at 25 uM.

Where two headings read alike, the source gives them in different places.

T1 sequence (O95785 whole entry): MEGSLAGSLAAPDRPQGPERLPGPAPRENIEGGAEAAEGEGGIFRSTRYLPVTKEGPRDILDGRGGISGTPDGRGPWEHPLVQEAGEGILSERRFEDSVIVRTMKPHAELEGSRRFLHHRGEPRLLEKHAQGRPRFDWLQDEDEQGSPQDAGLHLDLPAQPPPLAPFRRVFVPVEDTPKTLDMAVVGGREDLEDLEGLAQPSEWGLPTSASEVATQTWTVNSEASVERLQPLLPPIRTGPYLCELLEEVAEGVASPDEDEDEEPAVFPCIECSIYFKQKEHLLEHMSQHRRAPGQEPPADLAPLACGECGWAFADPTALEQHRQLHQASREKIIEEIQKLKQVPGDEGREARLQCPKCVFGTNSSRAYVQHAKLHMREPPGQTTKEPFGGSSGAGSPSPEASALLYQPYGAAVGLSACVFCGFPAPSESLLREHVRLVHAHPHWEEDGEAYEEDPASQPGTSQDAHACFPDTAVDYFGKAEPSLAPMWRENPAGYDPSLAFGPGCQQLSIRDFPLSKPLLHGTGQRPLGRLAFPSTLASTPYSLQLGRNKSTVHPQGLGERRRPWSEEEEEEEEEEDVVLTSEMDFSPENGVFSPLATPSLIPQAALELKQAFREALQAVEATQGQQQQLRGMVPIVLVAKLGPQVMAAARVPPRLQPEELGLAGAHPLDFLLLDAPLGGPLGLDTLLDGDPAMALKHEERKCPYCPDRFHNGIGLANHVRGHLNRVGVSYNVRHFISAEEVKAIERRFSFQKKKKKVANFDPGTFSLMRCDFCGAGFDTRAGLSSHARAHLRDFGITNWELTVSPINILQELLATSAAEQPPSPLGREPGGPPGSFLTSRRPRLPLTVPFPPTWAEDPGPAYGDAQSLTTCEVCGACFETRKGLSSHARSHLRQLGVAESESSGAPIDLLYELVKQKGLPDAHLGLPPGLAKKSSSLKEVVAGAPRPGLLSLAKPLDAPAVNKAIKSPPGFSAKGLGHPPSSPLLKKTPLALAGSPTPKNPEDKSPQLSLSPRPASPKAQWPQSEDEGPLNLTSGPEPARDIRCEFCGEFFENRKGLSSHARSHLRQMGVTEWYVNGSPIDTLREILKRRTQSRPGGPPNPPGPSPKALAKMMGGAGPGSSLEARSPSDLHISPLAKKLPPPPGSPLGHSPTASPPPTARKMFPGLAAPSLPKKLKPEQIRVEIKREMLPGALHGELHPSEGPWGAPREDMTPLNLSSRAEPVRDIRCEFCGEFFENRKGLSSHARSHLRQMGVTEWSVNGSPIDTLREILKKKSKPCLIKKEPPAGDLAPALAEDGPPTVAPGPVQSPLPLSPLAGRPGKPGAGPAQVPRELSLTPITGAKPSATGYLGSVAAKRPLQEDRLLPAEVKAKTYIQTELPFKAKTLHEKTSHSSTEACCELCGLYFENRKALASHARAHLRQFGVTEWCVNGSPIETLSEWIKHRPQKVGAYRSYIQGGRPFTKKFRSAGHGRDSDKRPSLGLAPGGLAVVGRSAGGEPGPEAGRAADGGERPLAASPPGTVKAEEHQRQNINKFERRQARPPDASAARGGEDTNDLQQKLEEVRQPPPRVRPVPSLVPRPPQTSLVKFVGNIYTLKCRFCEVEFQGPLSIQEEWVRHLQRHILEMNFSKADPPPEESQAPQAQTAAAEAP
T1 sequence (Q96SW2 whole entry): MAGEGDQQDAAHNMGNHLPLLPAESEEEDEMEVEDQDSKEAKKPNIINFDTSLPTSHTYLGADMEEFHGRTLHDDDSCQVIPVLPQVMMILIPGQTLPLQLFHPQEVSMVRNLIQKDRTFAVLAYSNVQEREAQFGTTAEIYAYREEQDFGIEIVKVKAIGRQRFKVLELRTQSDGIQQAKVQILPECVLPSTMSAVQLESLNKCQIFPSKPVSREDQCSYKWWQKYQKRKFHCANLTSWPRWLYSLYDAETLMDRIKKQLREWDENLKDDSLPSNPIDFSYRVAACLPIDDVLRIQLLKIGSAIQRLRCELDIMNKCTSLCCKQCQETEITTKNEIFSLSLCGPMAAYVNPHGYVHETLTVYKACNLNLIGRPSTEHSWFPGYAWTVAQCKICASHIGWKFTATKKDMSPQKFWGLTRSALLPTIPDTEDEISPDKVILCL
T1 sequence (Q16531 whole entry partner): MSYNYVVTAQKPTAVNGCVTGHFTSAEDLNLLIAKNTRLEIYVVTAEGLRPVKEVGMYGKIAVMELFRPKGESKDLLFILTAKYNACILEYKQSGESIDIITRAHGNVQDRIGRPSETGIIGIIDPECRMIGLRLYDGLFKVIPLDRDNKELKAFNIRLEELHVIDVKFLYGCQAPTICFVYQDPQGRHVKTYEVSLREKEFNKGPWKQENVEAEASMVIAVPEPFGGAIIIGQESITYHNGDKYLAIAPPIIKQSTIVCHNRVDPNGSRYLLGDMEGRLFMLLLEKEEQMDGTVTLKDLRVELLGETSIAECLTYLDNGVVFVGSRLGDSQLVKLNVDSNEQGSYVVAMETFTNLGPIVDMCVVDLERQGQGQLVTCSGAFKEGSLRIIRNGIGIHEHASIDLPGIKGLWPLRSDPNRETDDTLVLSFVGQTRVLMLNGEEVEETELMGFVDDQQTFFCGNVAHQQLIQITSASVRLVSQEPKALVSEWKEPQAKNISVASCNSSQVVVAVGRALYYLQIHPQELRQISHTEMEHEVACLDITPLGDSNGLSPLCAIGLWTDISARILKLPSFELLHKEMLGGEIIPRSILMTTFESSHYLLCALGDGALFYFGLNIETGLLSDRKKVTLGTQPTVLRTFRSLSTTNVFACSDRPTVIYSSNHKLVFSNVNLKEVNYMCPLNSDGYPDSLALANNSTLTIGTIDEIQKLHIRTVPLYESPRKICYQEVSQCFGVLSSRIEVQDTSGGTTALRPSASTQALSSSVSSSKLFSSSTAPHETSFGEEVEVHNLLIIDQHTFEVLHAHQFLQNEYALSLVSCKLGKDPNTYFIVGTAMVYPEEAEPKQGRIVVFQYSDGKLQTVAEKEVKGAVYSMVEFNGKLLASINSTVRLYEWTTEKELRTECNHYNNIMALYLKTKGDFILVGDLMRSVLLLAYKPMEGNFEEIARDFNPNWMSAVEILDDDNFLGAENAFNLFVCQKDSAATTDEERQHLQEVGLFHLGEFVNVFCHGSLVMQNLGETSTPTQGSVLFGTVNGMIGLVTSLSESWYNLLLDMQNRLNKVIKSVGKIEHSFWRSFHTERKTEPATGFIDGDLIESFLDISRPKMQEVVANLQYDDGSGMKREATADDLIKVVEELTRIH

Take `C[C@H]1CC[C@@H](Oc2ccc3c(c2)CN(C2CCC(=O)NC2=O)C3=O)CN1S(C)(=O)=O` (stereo partly drawn) [Example 85, 3-(5-(((3R,6S)-6-methyl-1-(methylsulfonyl)piperidin-3-yl)oxy)-1-oxoisoindolin-2-yl)piperidine-2,6-dione]: the Dmax at 25 µM stood at 34.3% and the DC50 was 67.2 nM. The remaining activity at 25 µM under setting [1] came to 65.7%.

Regarding `CCO[C@H]1C[C@@H](N2CCC[C@@H](Oc3ccc4c(c3)CN(C3CCC(=O)NC3=O)C4=O)C2)C1` (stereo partly drawn) [Example 26, 3-(5-(((R)-1-((1s,3S)-3-ethoxycyclobutyl)piperidin-3-yl)oxy)-1-oxoisoindolin-2-yl)piperidine-2,6-dione], the Dmax at 25 µM is 41.1% and the DC50 was determined as 21 nM. Under setting [1], the remaining activity at 25 µM was found to be 58.9%.

As to `CC(C)CN1C[C@H](C)C[C@@H](Oc2ccc3c(c2)CN(C2CCC(=O)NC2=O)C3=O)C1` (stereo partly drawn) [Example 79, 3-(5-(((3R,5R)-1-isobutyl-5-methylpiperidin-3-yl)oxy)-1-oxoisoindolin-2-yl)piperidine-2,6-dione], the Dmax at 25 µM stood at 82.7% and the DC50 turned out to be 1.7 nM. The remaining activity at 25 µM under setting [1] turned out to be 17.3%.

Take `CC1(C)CCC(Oc2ccc3c(c2)CN(C2CCC(=O)NC2=O)C3=O)CN1` (centres unmarked) [Example 88-1, 3-(5-((6,6-dimethylpiperidin-3-yl)oxy)-1-oxoisoindolin-2-yl)piperidine-2,6-dione]: the Dmax came out at 50%, the remaining activity at 25 µM is 50% and the DC50 turned out to be 134 nM.

In the case of `CCO[C@@H]1C[C@@H](Oc2ccc3c(c2)CN(C2CCC(=O)NC2=O)C3=O)CN(C2CCC2)C1` (stereo partly drawn) [Example 73, 3-(5-(((3R,5R)-1-cyclobutyl-5-ethoxypiperidin-3-yl)oxy)-1-oxoisoindolin-2-yl)piperidine-2,6-dione], the Dmax amounted to 62.8%, the remaining activity at 25 µM is 37.2% and the DC50 came out at 23.8 nM.

Take `CC[C@H](C)N1CCC[C@@H](Oc2ccc3c(c2)CN(C2CCC(=O)NC2=O)C3=O)C1` (stereo partly drawn) [Example 33, 3-(5-(((R)-1-((S)-sec-butyl)piperidin-3-yl)oxy)-1-oxoisoindolin-2-yl)piperidine-2,6-dione]: the Dmax at 25 µM was 81.4% and the DC50 came out at 1.5 nM. Besides, under setting [1], the remaining activity at 25 µM was 18.6%.

On to `CCN1CC[C@@H](C)[C@@H](Oc2ccc3c(c2)CN(C2CCC(=O)NC2=O)C3=O)C1` (mixture of isomers) [Example 46, rac-3-(5-(((3R,4R)-1-ethyl-4-methylpiperidin-3-yl)oxy)-1-oxoisoindolin-2-yl)piperidine-2,6-dione], for which the remaining activity at 25 µM turned out to be 101% and the DC50 was greater than 25000 nM.

On to `CCOC(=O)N1C[C@H](Oc2ccc3c(c2)CN(C2CCC(=O)NC2=O)C3=O)CC[C@@H]1C` (stereo partly drawn) [Example 83, ethyl (2S,5R)-5-((2-(2,6-dioxopiperidin-3-yl)-1-oxoisoindolin-5-yl)oxy)-2-methylpiperidine-1-carboxylate], for which the Dmax at 25 µM is 3.24% and the DC50 is greater than 25000 nM. Also, the remaining activity at 25 µM under setting [1] amounted to 96.8%.

As to `CCN1CC[C@H](F)[C@@H](Oc2ccc3c(c2)CN(C2CCC(=O)NC2=O)C3=O)C1` (relative stereo) [Example 55, 3-(5-(((3S*,4S*)-1-ethyl-4-fluoropiperidin-3-yl)oxy)-1-oxoisoindolin-2-yl)piperidine-2,6-dione], the Dmax turned out to be 44.9%, the remaining activity at 25 µM turned out to be 55.1% and the DC50 worked out at 26 nM.

`CO[C@H]1CC[C@H](CN2CCC[C@@H](Oc3ccc4c(c3)CN(C3CCC(=O)NC3=O)C4=O)C2)CC1` (stereo partly drawn) [Example 30, 3-(5-(((R)-1-(((1r,4R)-4-methoxycyclohexyl)methyl)piperidin-3-yl)oxy)-1-oxoisoindolin-2-yl)piperidine-2,6-dione]: the Dmax at 25 µM stood at 29.2% and the DC50 came to 79 nM. Besides, under setting [1], the remaining activity at 25 µM is 70.8%.

These data come from patent US12103919B2, “3-(5-oxy)-1-oxoisoindolin-2-yl)piperidine-2,6-dione derivatives and uses thereof” (NOVARTIS AG, priority 2021, dated 2024).
